Measured values as given in patent US12721808B2, “Orris root extracts, compositions, and methods for skin applications” (ACCESS BUSINESS GROUP INTERNATIONAL LLC, priority 2021, dated 2026).

tested on: B16-F10 (B16) cells; experiment: Bioassay Directed Fractionation (BDF) with B16 cell culture pigmentation assay; assay type: cell-based; conditions: LC fraction (20 sec) of Orris root extract corresponding to the compound's peak, FIG. 2
Description: Sample extracts were prepared at 50 mg/ml in DMSO and sonicated for 20 min. Samples solutions were then filtered through 0.2 μm Whatman Anotop 25 syringe filter into autosampler vials for assay. The LC-MS system was modified to incorporate a 10:1 splitter that was positioned between the UV detector and MS ion source. The majority of LC effluent was directed to a Waters Fraction Collector II fitted with a 96-deep well plate into which fractions were collected by time at intervals of 20 sec/well for the first 32 minutes of each run (96 wells/run). The LC column was a XBridge Shield RP18, 5 μm, 4.6×250 mm maintained at ambient temperature (22° C.). The solvent program was ramped linearly as follows: 95% A/5% B at time 0, to 100% B at 30 min, hold at 100% B to 32 min, then to 95% A/5% B at 32.1 min and hold 95% A/5% B until 36 min. The flow rate was 0.8 mL/min and an injection volume of […] was used (0.5 mg solids/injection). Effluent from four consecutive LC runs was collected per plate (2 mg solids/plate). Plates were then dried under nitrogen at 40° C. to remove acetonitrile and residual water was removed by freeze drying. Plates were stored at −80° C. until to assayed for pigmentation response.
The results of the BDF are shown in FIG. 2, with LC-UV chromatogram A at 260 nm showing phytochemical peak profile, and time-aligned bar graph B (with each bar representing a fraction from the LC effluent collected for 20 seconds), showing pigmentation responses using B16 cell culture assay.
Primary cells and cell lines were grown in a humidified atmosphere of 5% CO2 at 37° C. […]
B16 cells (6000 cells/well) were pre-cultured in 96-well plates in DMEM medium supplemented with 10% FBS and 1% P/S for 24 hours. […] The absorbance at 405 nm was measured, and MTT (3-(4,5-dimethylthiazol-2-yl)-2,5-diphenyltetrazolium bromide) assay was performed to examine the viability of cells. […]

**Q.** With `C=C1CC[C@H](C)C(C)(C)[C@@H]1/C=C/C(C)=C/CC[C@@]1(CO)[C@H](CCCO)/C(=C(/C)C=O)CC[C@]1(C)O` [iriflorental, Iriflorental] as the compound, how does the pigmentation response read?
**A.** reduced pigmentation

**Q.** Which pigmentation response does the source give for `CC1=CC[C@H](C)C(C)(C)[C@@H]1/C=C/C(C)=C/CC[C@@]1(CO)[C@H](CCCO)/C(=C(/C)C=O)CC[C@]1(C)O` [iripallidal, Iripallidal] here?
**A.** reduced pigmentation

**Q.** How did the pigmentation response turn out when `COc1c2c(cc3occ(-c4ccc(O[C@@H]5O[C@H](CO)[C@@H](O)[C@H](O)[C@H]5O)cc4)c(=O)c13)OCO2` [germanaism B, Germanaism B] was run?
**A.** Increased pigmentation
